Data published in ChEMBL document CHEMBL1201862, “PubChem BioAssay data set” (2004).
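Cultured in 96-well plates, cells were exposed to test compound for 48 hours across five concentrations. At the GI50, growth is halved.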 Active and inactive are the calls of the source. Cut-off read from the data, not from the text of the source: active = GI50 up to about 1.1 µM and inactive = higher.

Columns and labels:
Test in all cases: inhibition of tumour cell growth, NCI panel, 48 h
A498 = system: A498
ACHN = system: ACHN
CAKI-1 = system: CAKI-1
COLO 205 = system: COLO 205
HCC 2998 = system: HCC 2998
LOX IMVI = system: LOX IMVI
NCI-H23 = system: NCI-H23
OVCAR-4 = system: OVCAR-4
OVCAR-8 = system: OVCAR-8
RPMI-8226 = system: RPMI-8226
SK-MEL-28 = system: SK-MEL-28
SR = system: SR
SW-620 = system: SW-620
UACC-257 = system: UACC-257
UACC-62 = system: UACC-62
UO-31 = system: UO-31
HL-60 = system: HL-60

Measured: GI50

Cn1cnc([N+](=O)[O-])c1Sc1nccn1-c1cccc2ccccc12
inactive: A498 32.7 µM | ACHN 26.4 µM | CAKI-1 30.9 µM | COLO 205 16.7 µM | HCC 2998 45.5 µM | LOX IMVI 13.6 µM | NCI-H23 23 µM | OVCAR-4 24 µM | OVCAR-8 20.8 µM | RPMI-8226 15.8 µM | SK-MEL-28 22.5 µM | SR 15.8 µM | SW-620 26.2 µM | UACC-257 27.3 µM | UACC-62 16.4 µM | UO-31 16.7 µM

CCN(CC)C(=S)SCC(=O)Nc1nc2c(s1)CCCC2
inactive: A498 > 100 µM | ACHN > 100 µM | COLO 205 95.1 µM | HCC 2998 > 100 µM | HL-60 19.4 µM | LOX IMVI 57 µM | NCI-H23 74.1 µM | OVCAR-4 > 100 µM | OVCAR-8 > 100 µM | RPMI-8226 > 100 µM | SK-MEL-28 > 100 µM | SR 27.6 µM | SW-620 > 100 µM | UACC-257 36.9 µM | UO-31 36.7 µM

O=C1CC[C@@H](S(=O)(=O)c2ccccc2)[C@H](/C=C/c2ccccc2)O1
inactive: A498 > 100 µM | ACHN > 100 µM | COLO 205 > 100 µM | HCC 2998 > 100 µM | HL-60 > 100 µM | LOX IMVI > 100 µM | NCI-H23 > 100 µM | OVCAR-4 > 100 µM | OVCAR-8 > 100 µM | RPMI-8226 > 100 µM | SK-MEL-28 > 100 µM | SR > 100 µM | SW-620 > 100 µM | UACC-257 > 100 µM | UACC-62 > 100 µM | UO-31 > 100 µM

Cc1cccc(C)c1NC(=O)CCC/C(CC(=O)c1ccc(F)cc1)=N\NC(=O)C(=O)NN
inactive: A498 > 100 µM | ACHN > 100 µM | CAKI-1 > 100 µM | COLO 205 > 100 µM | HCC 2998 > 100 µM | HL-60 > 100 µM | LOX IMVI > 100 µM | NCI-H23 > 100 µM | OVCAR-4 > 100 µM | OVCAR-8 > 100 µM | RPMI-8226 > 100 µM | SK-MEL-28 > 100 µM | SW-620 > 100 µM | UACC-257 > 100 µM | UACC-62 > 100 µM | UO-31 > 100 µM

NC(=O)c1ccccc1NC(=O)C(=O)C(C(=O)c1ccc(Cl)c(Cl)c1)C1OC(=O)c2ccccc21 (stereo not given)
inactive: A498 31.8 µM | ACHN 59.3 µM | CAKI-1 52.6 µM | COLO 205 41.8 µM | HCC 2998 49.8 µM | HL-60 > 100 µM | NCI-H23 39.5 µM | OVCAR-4 43.3 µM | OVCAR-8 39.6 µM | RPMI-8226 69.2 µM | SR 95.9 µM | SW-620 46.5 µM | UACC-257 62.4 µM | UACC-62 30.8 µM

O=C(Cn1ccnc1[N+](=O)[O-])c1ccccc1
inactive: A498 > 100 µM | ACHN > 100 µM | CAKI-1 > 100 µM | COLO 205 > 100 µM | HCC 2998 > 100 µM | HL-60 > 100 µM | LOX IMVI > 100 µM | NCI-H23 > 100 µM | OVCAR-4 > 100 µM | OVCAR-8 > 100 µM | RPMI-8226 > 100 µM | SK-MEL-28 > 100 µM | SW-620 > 100 µM | UACC-257 > 100 µM | UACC-62 > 100 µM | UO-31 > 100 µM

Cc1ccc(C)c(NC(=O)CCc2n[nH]c(=S)o2)c1
inactive: A498 > 100 µM | ACHN > 100 µM | CAKI-1 > 100 µM | COLO 205 > 100 µM | HCC 2998 > 100 µM | HL-60 > 100 µM | LOX IMVI > 100 µM | NCI-H23 > 100 µM | OVCAR-4 > 100 µM | OVCAR-8 > 100 µM | SK-MEL-28 > 100 µM | SR > 100 µM | SW-620 > 100 µM | UACC-257 > 100 µM | UACC-62 > 100 µM | UO-31 > 100 µM

C=C(COC(C)=O)CC(/C=C(\C)CC/C=C(\C)CO)OC(C)=O (stereo not given)
inactive: A498 > 100 µM | ACHN > 100 µM | COLO 205 > 100 µM | HCC 2998 > 100 µM | HL-60 > 100 µM | LOX IMVI > 100 µM | NCI-H23 > 100 µM | OVCAR-4 > 100 µM | OVCAR-8 > 100 µM | RPMI-8226 > 10 µM | SK-MEL-28 > 100 µM | SW-620 > 100 µM | UACC-62 > 100 µM | UO-31 > 100 µM

CCOC(OCC)c1ccc(/C=C/c2cc(OC)c(OC)c(OC)c2)cc1
inactive: A498 18.8 µM | ACHN 37.8 µM | CAKI-1 24.9 µM | COLO 205 18.7 µM | HL-60 11.7 µM | LOX IMVI 11.1 µM | OVCAR-4 22.3 µM | OVCAR-8 26.9 µM | RPMI-8226 17.1 µM | SK-MEL-28 21 µM | SW-620 22.7 µM | UACC-257 20.2 µM | UACC-62 16.4 µM | UO-31 15.1 µM

Cc1cc([N+](=O)[O-])ccc1Sc1c2ccccc2nc2ccccc12
inactive: A498 > 100 µM | ACHN 48.9 µM | CAKI-1 26.4 µM | COLO 205 39.9 µM | HCC 2998 25.4 µM | HL-60 3.03 µM | LOX IMVI 20 µM | NCI-H23 33 µM | OVCAR-4 57.8 µM | OVCAR-8 29.1 µM | SK-MEL-28 > 100 µM | SR 27.7 µM | SW-620 22.6 µM | UACC-257 29.4 µM | UACC-62 25.1 µM | UO-31 44.7 µM

CC(=O)N1CC(=O)NC1=S
inactive: ACHN > 100 µM | CAKI-1 > 100 µM | COLO 205 > 100 µM | HL-60 > 100 µM | LOX IMVI > 100 µM | NCI-H23 > 100 µM | OVCAR-4 > 100 µM | OVCAR-8 > 100 µM | RPMI-8226 > 100 µM | SK-MEL-28 > 100 µM | SR > 100 µM | SW-620 > 100 µM | UACC-257 > 100 µM | UACC-62 > 100 µM | UO-31 > 100 µM

Nc1nc(Cl)cc(NCCCCCNc2cc(Cl)nc(N)n2)n1
inactive: ACHN 15.2 µM | CAKI-1 17 µM | COLO 205 > 100 µM | HCC 2998 > 100 µM | HL-60 27.3 µM | LOX IMVI 25.1 µM | NCI-H23 55.5 µM | OVCAR-4 34.8 µM | OVCAR-8 71.8 µM | RPMI-8226 33.5 µM | SK-MEL-28 75 µM | SR 38.7 µM | SW-620 > 100 µM | UACC-257 46.8 µM | UACC-62 24 µM | UO-31 > 100 µM

CC[N+](C)(CC)CC(C)(C)C(=O)/C=C/c1ccc(/C=C/C(=O)C(C)(C)C[N+](C)(CC)CC)cc1
inactive: A498 > 100 µM | ACHN > 100 µM | CAKI-1 > 100 µM | COLO 205 > 100 µM | HCC 2998 > 100 µM | HL-60 > 100 µM | LOX IMVI > 100 µM | NCI-H23 > 100 µM | OVCAR-4 > 100 µM | OVCAR-8 > 100 µM | RPMI-8226 > 100 µM | SK-MEL-28 > 100 µM | SW-620 > 100 µM | UACC-257 > 100 µM | UACC-62 > 100 µM | UO-31 > 100 µM
